This passage reports ED50, Activity and MIC results from ChEMBL document CHEMBL3244049, “Synthesis and antibacterial activity of 1-hydroxy-1-methyl-1,3-dihydrofuro[3,4-b]quinoxaline 4,9-dioxide and related compounds” (1979).

≈ marks a conversion by molar mass, not a printed value.

Format in all cases: functional
In assay [1] the test system is Escherichia coli. Kind of assay: Antibacterial activity against Escherichia coli infected in po dosed mouse assessed as protection from infection compound administered 0.5 hrs, 4 and 24 hrs post inoculation. Particulars: read-out: PD50.
For assay [2], the system named is Escherichia coli. Nature of the assay: Antibacterial activity against Escherichia coli infected in sc dosed mouse assessed as protection from infection compound administered 0.5 hrs, 4 and 24 hrs post inoculation. The note with it: read-out: PD50.
Assay [3] relates to Salmonella enterica. Nature of the assay: Antibacterial activity against Salmonella choleraesuis infected in mouse assessed as protection from infection at 25 mg/kg, sc administered 0.5 hrs, 4 and 24 hrs post inoculation. Particulars: route subcutaneous.
Assay [4] concerns Salmonella enterica. Kind of assay: Antibacterial activity against Salmonella choleraesuis infected in sc dosed mouse assessed as protection from infection compound administered 0.5 hrs, 4 and 24 hrs post inoculation. Particulars: read-out: PD50.
Assay [5] deals with Pasteurella multocida. Kind of assay: Antibacterial activity against Pasteurella multocida infected in po dosed mouse assessed as protection from infection compound administered 0.5 hrs, 4 and 24 hrs post inoculation. Particulars: read-out: PD50.
In assay [6] the test system is Pasteurella multocida. Nature of the assay: Antibacterial activity against Pasteurella multocida infected in sc dosed mouse assessed as protection from infection compound administered 0.5 hrs, 4 and 24 hrs post inoculation. Particulars: read-out: PD50.
The test system of assay [7] is Salmonella enterica. Nature of the assay: Antibacterial activity against Salmonella choleraesuis infected in po dosed mouse assessed as protection from infection compound administered 0.5 hrs, 4 and 24 hrs post inoculation. The note with it: read-out: PD50.
Assay [8] concerns Salmonella enterica. Kind of assay: Antibacterial activity against Salmonella choleraesuis infected in mouse assessed as protection from infection at 25 mg/kg, po administered 0.5 hrs, 4 and 24 hrs post inoculation.
In another assay the test system is Streptococcus pyogenes. Nature of the assay: Antibacterial activity against Streptococcus pyogenes.
The subject of assay [9] is Pasteurella multocida. Kind of assay: Antibacterial activity against Pasteurella multocida.
The test system of assay [10] is Brachyspira hyodysenteriae. Nature of the assay: Antibacterial activity against Treponema hyodysenteriae after 72 hrs by dilution method.
In assay [11] the test system is Escherichia coli. Kind of assay: Antibacterial activity against Escherichia coli.
In assay [12] the test system is Salmonella enterica. Kind of assay: Antibacterial activity against Salmonella choleraesuis.

In the case of `CC1(O)OCc2c1[n+]([O-])c1ccccc1[n+]2[O-]` (configuration not stated), the ED50 with Escherichia coli [1] was 14 mg/kg; in the assay on Escherichia coli [2], 13 mg/kg; in the assay with Salmonella enterica [4], 4.4 mg/kg; in the assay on Pasteurella multocida [5], 11 mg/kg; with Pasteurella multocida [6] it was 8.1 mg/kg; with Salmonella enterica [7] it was 6 mg/kg. Also, the Activity in the assay on Salmonella enterica [3] and with Salmonella enterica [8] was 100% throughout.
`COC1(C)OCc2c1[n+]([O-])c1ccccc1[n+]2[O-]` (configuration not stated): the Activity with Salmonella enterica [3] and in the assay with Salmonella enterica [8] was 70% throughout.
`CCOC1(C)OCc2c1[n+]([O-])c1ccccc1[n+]2[O-]` (configuration not stated): the Activity was 50% in the assay on Salmonella enterica [3] and 70% in the assay with Salmonella enterica [8].
As for `CC1(OCc2ccccc2)OCc2c1[n+]([O-])c1ccccc1[n+]2[O-]` (configuration not stated), the Activity with Salmonella enterica [3] was determined as 60%; in the assay on Salmonella enterica [8] it was 40%.
One may read the MIC as the lowest concentration that inhibits growth of the organism. For `COC(=O)N/N=C/c1c[n+]([O-])c2ccccc2[n+]1[O-]` [CARBADOX], the ED50 was 8.2 mg/kg in the assay with Escherichia coli [1]; 7 mg/kg in the assay on Escherichia coli [2]; 44 mg/kg in the assay with Salmonella enterica [4]; 16 mg/kg in the assay on Pasteurella multocida [5]; 18 mg/kg in the assay on Pasteurella multocida [6]; 20 mg/kg with Salmonella enterica [7]. Further, the MIC in the assay on Streptococcus pyogenes was found to be 0.19 µg/mL (≈ 0.725 µM); in the assay with Pasteurella multocida [9], 0.78 µg/mL (≈ 2.97 µM); in assay [10] it was 0.09 µg/mL (≈ 0.343 µM); against Escherichia coli [11], 0.39 µg/mL (≈ 1.49 µM); with Salmonella enterica [12] it was 0.19 µg/mL (≈ 0.725 µM). For the same molecule, the figures for the Activity in the assay with Salmonella enterica [3] and with Salmonella enterica [8] were 40% and 80%, respectively.
